Experimental data from PubChem BioAssay AID248 (DTP/NCI, 2004).
“And” between values parts separate entries of the source, which are not always exact repeats. Identical values can stand only once. Toxic doses and inconclusive results are not listed. Cut-off read from the data, not from the text of the source: active = T/C of 150% or more; inactive = T/C below 125%.

Test system: L1210 leukemia ip in BDF1 mice, survival T/C
Assay: NCI In Vivo Anticancer Drug Screen. Data for tumor model L1210 Leukemia (intraperitoneal) in B6D2F1 (BDF1) mice
Conditions: endpoint: mean survival time, higher = longer survival
Outline: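 Value reflects the ratio of survival in compound-treated mice to survival in vehicle-treated controls, with both groups carrying the same transplanted tumor.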

[1] = dose: 100.0 mg/kg/injection, schedule: Q01DX001 (ip), vehicle: saline
[2] = dose: 200.0 mg/kg/injection, schedule: Q01DX001 (ip), vehicle: saline
[3] = dose: 400.0 mg/kg/injection, schedule: Q01DX001 (ip), vehicle: saline
[4] = dose: 25.0 mg/kg/injection, schedule: Q01DX009 (ip), vehicle: saline
[5] = dose: 25.0 mg/kg/injection, schedule: Q04DX003 (ip), vehicle: saline
[6] = dose: 50.0 mg/kg/injection, schedule: Q01DX009 (ip), vehicle: saline
[7] = dose: 50.0 mg/kg/injection, schedule: Q04DX003 (ip), vehicle: saline
[8] = dose: 100.0 mg/kg/injection, schedule: Q01DX009 (ip), vehicle: saline
[9] = dose: 100.0 mg/kg/injection, schedule: Q04DX003 (ip), vehicle: saline
[10] = dose: 200.0 mg/kg/injection, schedule: Q04DX003 (ip), vehicle: saline
[11] = dose: 400.0 mg/kg/injection, schedule: Q04DX003 (ip), vehicle: saline
[12] = dose: 100.0 mg/kg/injection, schedule: Q01DX001 (ip), vehicle: carboxymethylcellulose (CMC)
[13] = dose: 200.0 mg/kg/injection, schedule: Q01DX001 (ip), vehicle: carboxymethylcellulose (CMC)
[14] = dose: 400.0 mg/kg/injection, schedule: Q01DX001 (ip), vehicle: carboxymethylcellulose (CMC)

Measured: T/C

CC(=O)OC1=C(c2ccccc2)C(=O)c2ccccc21
inactive: dose: 40.0 mg/kg/injection, schedule: Q01DX009 (ip), vehicle: Klucel (hydroxypropylcellulose) (HPC) 94 % of control | dose: 75.0 mg/kg/injection, schedule: Q01DX001 (ip), vehicle: Klucel (hydroxypropylcellulose) (HPC) 95 % of control | dose: 75.0 mg/kg/injection, schedule: Q01DX009 (ip), vehicle: Klucel (hydroxypropylcellulose) (HPC) 94 % of control | dose: 150.0 mg/kg/injection, schedule: Q01DX001 (ip), vehicle: Klucel (hydroxypropylcellulose) (HPC) 96 % of control | dose: 150.0 mg/kg/injection, schedule: Q01DX009 (ip), vehicle: Klucel (hydroxypropylcellulose) (HPC) 88 % of control

O=c1cccc(CCc2ccccc2)[nH]1
inactive: [1] 100 % of control | [2] 95 % of control | [3] 105 % of control

O=C(Nc1cccc(Cl)c1)Oc1ccc(Cl)cc1Cl
inactive: dose: 100.0 mg/kg/injection, schedule: Q04DX002 (ip), vehicle: saline with Tween-80 96 % of control | dose: 200.0 mg/kg/injection, schedule: Q04DX002 (ip), vehicle: saline with Tween-80 100 % of control

CCOC(=O)C1(C(=O)OCC)C(C)CC(=O)N1c1ccccc1OC (stereo unspecified)
inactive: dose: 100.0 mg/kg/injection, schedule: Q04DX002 (ip), vehicle: Klucel (hydroxypropylcellulose) (HPC) 106 % of control | dose: 200.0 mg/kg/injection, schedule: Q04DX002 (ip), vehicle: Klucel (hydroxypropylcellulose) (HPC) 103 % of control | dose: 400.0 mg/kg/injection, schedule: Q04DX002 (ip), vehicle: Klucel (hydroxypropylcellulose) (HPC) 97 % of control

CN=C(Nc1ccccc1)SC
inactive: [4] 92 % of control | [5] 94 % of control | [6] 105 % of control | [7] 97 % of control | [1] 104 % of control | [8] 105 % of control | [9] 97 % of control

NC1Cc2ccccc2C1
inactive: dose: 12.5 mg/kg/injection, schedule: Q01DX009 (ip), vehicle: saline 98 % of control | [4] 110 % of control and 93 % of control | [5] 104 % of control | [6] 92 % of control and 95 % of control | [7] 109 % of control | [8] 106 % of control and 92 % of control | [9] 96 % of control | [10] 92 % of control

NC(C(=O)O)C(=O)c1ccccc1 (stereo unspecified)
inactive: dose: 100.0 mg/kg/injection, schedule: Q01DX009 (ip), vehicle: saline sonified 101 % of control | [9] 102 % of control | dose: 200.0 mg/kg/injection, schedule: Q01DX009 (ip), vehicle: saline sonified 101 % of control | [10] 112 % of control | dose: 400.0 mg/kg/injection, schedule: Q01DX009 (ip), vehicle: saline sonified 106 % of control | [11] 100 % of control

Cc1ccc(S(=O)(=O)OCCCCl)cc1
inactive: [12] 112 % of control | [13] 106 % of control | [14] 101 % of control

CCOc1ccc(Cl)cc1C1N(Cc2ccccc2OC)CCCN1Cc1ccccc1OC
inactive: [12] 87 % of control | [13] 93 % of control | [14] 91 % of control

CN1C2CCCC1CC(=O)NC2 (stereo unspecified)
inactive: dose: 15.0 mg/kg/injection, schedule: Q01DX001 (ip), vehicle: saline 107 % of control | dose: 15.0 mg/kg/injection, schedule: Q04DX002 (ip), vehicle: saline 101 % of control | dose: 30.0 mg/kg/injection, schedule: Q01DX001 (ip), vehicle: saline 106 % of control | dose: 30.0 mg/kg/injection, schedule: Q04DX002 (ip), vehicle: saline 101 % of control | dose: 60.0 mg/kg/injection, schedule: Q04DX002 (ip), vehicle: saline 108 % of control

COc1ccc(C2=Cc3ccc(OC(C)=O)cc3OC2)cc1
inactive: dose: 50.0 mg/kg/injection, schedule: Q01DX001 (sc), vehicle: steriod suspending solution 101 % of control | dose: 100.0 mg/kg/injection, schedule: Q01DX001 (sc), vehicle: steriod suspending solution 103 % of control | dose: 200.0 mg/kg/injection, schedule: Q01DX001 (sc), vehicle: steriod suspending solution 101 % of control | dose: 400.0 mg/kg/injection, schedule: Q01DX001 (sc), vehicle: steriod suspending solution 95 % of control

Cc1ccc(S(=O)(=O)N(C)c2cc(Cl)c(C#N)cc2Cl)cc1
inactive: dose: 100.0 mg/kg/injection, schedule: Q04DX003 (ip), vehicle: Klucel (hydroxypropylcellulose) (HPC) 97 % of control | dose: 200.0 mg/kg/injection, schedule: Q04DX003 (ip), vehicle: Klucel (hydroxypropylcellulose) (HPC) 97 % of control | dose: 400.0 mg/kg/injection, schedule: Q04DX003 (ip), vehicle: Klucel (hydroxypropylcellulose) (HPC) 100 % of control

CCCCCCCC[Se]CCCCCCCC
inactive: dose: 100.0 mg/kg/injection, schedule: Q04DX003 (ip), vehicle: saline with Tween-80 111 % of control | dose: 200.0 mg/kg/injection, schedule: Q04DX003 (ip), vehicle: saline with Tween-80 103 % of control | dose: 400.0 mg/kg/injection, schedule: Q04DX003 (ip), vehicle: saline with Tween-80 103 % of control

O=S(=O)(Nc1c(Cl)c(Cl)c(NS(=O)(=O)c2ccccc2)c(Cl)c1Cl)c1ccccc1
inactive: dose: 100.0 mg/kg/injection, schedule: Q01DX009 (ip), vehicle: Klucel (hydroxypropylcellulose) (HPC) 103 % of control | dose: 200.0 mg/kg/injection, schedule: Q01DX009 (ip), vehicle: Klucel (hydroxypropylcellulose) (HPC) 111 % of control | dose: 400.0 mg/kg/injection, schedule: Q01DX009 (ip), vehicle: Klucel (hydroxypropylcellulose) (HPC) 103 % of control

CCCCCCCCCCCCCCCCCCOCCCCCCCCCCCC
inactive: dose: 100.0 mg/kg/injection, schedule: Q01DX001 (ip), vehicle: other 97 % of control | dose: 200.0 mg/kg/injection, schedule: Q01DX001 (ip), vehicle: other 92 % of control | dose: 400.0 mg/kg/injection, schedule: Q01DX001 (ip), vehicle: other 93 % of control

O=C(c1ccccc1Cl)c1cccc2ccccc12
inactive: [9] 115 % of control | [10] 100 % of control | [11] 106 % of control

Cc1nc(N)[nH]c(=O)c1CCCNc1ccc(CCCCC2(CCl)OCCO2)cc1
inactive: dose: 50.0 mg/kg/injection, schedule: Q01DX Z (ip), vehicle: carboxymethylcellulose (CMC) 98 % of control | dose: 100.0 mg/kg/injection, schedule: Q01DX Z (ip), vehicle: carboxymethylcellulose (CMC) 101 % of control | dose: 200.0 mg/kg/injection, schedule: Q01DX Z (ip), vehicle: carboxymethylcellulose (CMC) 95 % of control | dose: 400.0 mg/kg/injection, schedule: Q01DX Z (ip), vehicle: carboxymethylcellulose (CMC) 101 % of control

O=C(c1ccccc1)C(Cl)Cl
inactive: [9] 106 % of control | [10] 96 % of control | [11] 98 % of control

COCc1ccc(N2C(N)=NC(N)=NC2(C)C)cc1
inactive: [9] 95 % of control

Nc1nc(N)c2c(n1)[n+]([O-])c1ccccc1[n+]2[O-]
inactive: [1] 103 % of control | [2] 103 % of control | [3] 94 % of control

CCCCCCCC(O)CCC(=O)NN (stereo unspecified)
inactive: dose: 25.0 mg/kg/injection, schedule: Q01DX009 (ip), vehicle: saline with Tween-80 98 % of control | dose: 50.0 mg/kg/injection, schedule: Q01DX009 (ip), vehicle: saline with Tween-80 102 % of control | dose: 100.0 mg/kg/injection, schedule: Q01DX009 (ip), vehicle: saline with Tween-80 106 % of control

CCCCNC(=O)NNC(=O)CCCC(=O)NNC(=O)NCCCC
inactive: dose: 50.0 mg/kg/injection, schedule: Q01DX001 (ip), vehicle: saline 100 % of control | [1] 93 % of control | [2] 100 % of control
